The subject of experiment [1] is recombinant Heliothis virescens PMCA. In words: PMCA activity assay, luciferase-luciferin luminescence measurement of remaining ATP. It is filed as biochemical. The protocol: The assay for PMCA is based on the use of the luciferase-luciferin luminescence reaction to measure ATP. PMCA hydrolyzes ATP in the presence of Ca^2+and the ATP that remains is measured. Membrane vesicles from Sf9 cells expressing recombinant Heliothis virescens PMCA are provided with the assay.
The assay protocol is designed for a 384-well microtiter plate format, but other multi-well formats or other formats may also be used. The reaction is started by the addition of the PMCA enzyme. The negative control reactions contain eosin, an inhibitor of PMCA. Reaction mixtures are incubated at room temperature (22-24° C.) for 60 minutes, followed by the addition of the luciferase-luciferin mix. The plates are immediately read for luminescence.
The luciferin-luciferase readout measures the concentration of ATP in reaction mixtures. Light emission by the luciferase is proportional to the concentration of ATP when its value is less than 0.010 mM. PMCA consumes ATP in a Ca^2+-dependent hydrolysis reaction. […]
A volume of 0.005 mL of the HI solution increasing concentrations of eosin was placed in the wells of a 384-well microtiter plate, and a volume of 0.020 mL of the H2 solution was added. […] A volume of 0.035 mL of the H4 reaction mixture was then added to each well of the plate and the luminescence was measured. The decrease in relative light units (RLU) in reaction time t=60 minutes was measured. […]

The next experiment relates to PMCA. In words: pyruvate kinase/lactate dehydrogenase-coupled assay that measures ADP formation. The conditions noted are these: fit to simple hyperbolic equation; decrease in absorbance at 340 nm; PMCA 0.20 mg/mL; FIG. 3; read-out: K1/2 for ATP, PMCA reaction rate. It is filed as biochemical, Heliothis virescens. The protocol: The PMCA reaction rate is dependent on the ATP concentration. The K1/2 for ATP was measured using a pyruvate kinase/lactate dehydrogenase-coupled assay that measures ADP formation. The final concentrations of PMCA and ATP were […]. The rates of decrease in absorbance at 340 nm were measured for each concentration of ATP. The line gives the fit to a simple hyperbolic equation with K1/2=0.013 mM and amplitude=0.022 OD/min. Vmax =50.0 nmol.min^−1.mg^−1. was obtained for PMCA activity under the conditions described.

On to `[Ca+2]` [Ca^2+], for which, in experiment [1] (fit to simple hyperbolic equation, rates of decrease in RLU, ATP 0.010 mM, PMCA 0.010 mg/mL, FIG. 4), the “K1/2 for Ca2+, PMCA reaction rate” value was 1.5 µM. As for `O=C1OC2(c3ccccc31)c1cc(Br)c(O)c(Br)c1Oc1c2cc(Br)c(O)c1Br` [eosin, reference compound], the IC50 in experiment [1] (membrane vesicles from Sf9 cells, room temperature (22-24° C.), 60 minutes, FIG. 5, read-out: IC50 of inhibition of PMCA activity (rates of ATP consumption)) was determined as 0.012 µM.

For the compound `Nc1ncnc2c1ncn2[C@@H]1O[C@H](COP(=O)(O)OP(=O)(O)OP(=O)(O)O)[C@@H](O)[C@H]1O` [ATP], the Km in the experiment with PMCA is 13 µM.

The IC50 is the point on the concentration scale where inhibition reaches its midpoint.

Values taken from US20060269938A1, “Polynucleotides encoding insect plasma membrane ca2+ ATPase and uses thereof” (priority 2005, published 2006).
